Results taken from patent publication US20060216775A1, “Compositions and methods for analysis and manipulation of enzymes in biosynthetic proteomes” (priority 2003, published 2006).

Molecular target: T1, VibB (UniProt P0C6D3+P39135)
T1 construct: made in house; host or cells: E. coli BL21 (DE3), crude lysate
Assay type: biochemical, Vibrio cholera
Conditions: cell lysate of E. coli BL21 producing VibB, recombinant Sfp, SDS-PAGE, UV irradiation
Text: To investigate PPTase transfer of non-thioester CoA derivatives, Sfp was used for post-translational modification of known, heterologously expressed CP domains (FIG. 11). As a first experiment, VibB was used. VibB is a small protein from the Vibrio cholera vibriobactin biosynthetic machinery that consists of a modular NRP synthase system. VibB contains only one carrier protein domain and as such is a perfect model system due to its small size and facile expression in E. coli. Cell lysate was collected from induced E. coli BL21 cells producing VibB from a pET24 expression vector. An aliquot of this lysate was incubated with CoA-BODIPY derivative and recombinant Sfp and analyzed by SDS-PAGE. […] Coomassie staining of the gel confirmed the band to be fluorescently-tagged VibB (32.6 kD) (FIG. 11C). […]
One Liter of E. Coli BL21 (DE3) cells induced to express recombinant VibB, FrenACP, OtcACP, and TcmACP, each in pET22b vectors (Novagen, Madison, Wis.), were pelleted, resuspended, and lysed by sonication in 30 mL 0.1 M Tris-Cl pH 8.0 with 1% glycerol in the presence of 500 μL of a 10 mM protease inhibitor cocktail containing bestatin, pepstatin A, E-64, and phosphoramidon (Sigma-Aldrich) and sonicated by pulsing for 5 minutes on ice. […] Protein concentration was determined using the Bradford method with bovine serum albumin (Sigma-Aldrich) as a standard.

T1 sequence (P39135 whole entry): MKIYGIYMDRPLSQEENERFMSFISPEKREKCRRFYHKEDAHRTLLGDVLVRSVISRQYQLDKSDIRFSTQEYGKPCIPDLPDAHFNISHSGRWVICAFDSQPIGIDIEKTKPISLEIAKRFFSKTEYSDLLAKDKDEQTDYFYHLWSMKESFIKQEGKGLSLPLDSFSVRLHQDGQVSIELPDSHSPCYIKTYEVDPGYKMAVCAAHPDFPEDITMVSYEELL
T1 sequence (P0C6D3 whole entry): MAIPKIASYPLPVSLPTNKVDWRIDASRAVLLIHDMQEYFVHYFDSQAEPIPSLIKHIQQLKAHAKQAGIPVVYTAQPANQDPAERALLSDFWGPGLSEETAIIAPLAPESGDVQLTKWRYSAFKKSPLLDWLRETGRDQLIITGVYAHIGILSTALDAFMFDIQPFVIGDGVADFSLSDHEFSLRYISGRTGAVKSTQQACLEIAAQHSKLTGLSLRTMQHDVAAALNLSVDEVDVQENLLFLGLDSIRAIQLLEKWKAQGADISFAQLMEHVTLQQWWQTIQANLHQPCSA

O=C(O)c1cc(N2C(=O)C=CC2=O)ccc1-c1c2cc(F)c(=O)cc-2oc2cc(O)c(F)cc12 [1b, Oregon Green® 488 maleimide]
fluorescent labeling of VibB: Comparable labeling
